Results taken from patent publication US4108973A, “Immunoassay for catecholamines” (Hoffmann-La Roche Inc., priority 1976, dated 1978).

Molecular target: Ab-7^123 dl-Met complex (epinephrine type catecholamine antibody)
Assay: Antibody specificity: 50% inhibition of antibody-labelled dl-metanephrine complex (competitive binding radioimmunoassay)
Set-up: species or system rabbit
Conditions: amount for 50% inhibition; incubation volume 0.5 or 1.0 ml
Description: The specificity of an epinephrine type catecholamine antibody suitable for use in the practice of the present method is set forth below in Table 1:
For immunization of rabbits, 10 mg. of each of the products of Example 8 or Example 9 was dissolved in 1 ml. of phosphate buffered saline and emulsified with 1 ml. of complete Freund's adjuvant. The second inoculation was given three weeks later and consisted of 1.5 mg. immunogen in 1 ml. PBS emulsified with 1 ml. of complete Freund's adjuvant. The third injection, five weeks after the first, employed the same concentration of antigen but was in incomplete Freund's adjuvant. Immunizations were by the subcutaneous route.
A competitive binding radioimmunoassay procedure is used similar to that described in U.S. Pat. No. 3,704,282. An incubation volume of either 0.5 or 1.0 ml. is used and antibody-label complex is separated from free label by precipitation with saturated

**Q.** For `CNCC(O)c1ccc(O)c(OC)c1` (racemic) [dl-Metanephrine], which “50 % INHIBITION OF Ab-7^123 dl-Met OMPLEX” value is on record?
**A.** 0.050 ng

**Q.** For `CNCC(O)c1ccc(O)cc1` (racemic) [dl-Synephrine], which “50 % INHIBITION OF Ab-7^123 dl-Met OMPLEX” value is on record?
**A.** 0.100 ng

**Q.** How did the “50 % INHIBITION OF Ab-7^123 dl-Met OMPLEX” value turn out when `CNC[C@H](O)c1ccc(O)c(O)c1` [1-Epinephrine] was run?
**A.** 0.250 ng

**Q.** Which “50 % INHIBITION OF Ab-7^123 dl-Met OMPLEX” value does the source give for `NC[C@H](O)c1ccc(O)c(O)c1` [1-Norepinephrine] here?
**A.** > 500 ng

**Q.** For `CNC[C@H](O)c1cccc(O)c1` [1-Phenylephrine], which “50 % INHIBITION OF Ab-7^123 dl-Met OMPLEX” value is on record?
**A.** 0.060 ng

**Q.** For `CC(N)Cc1ccccc1` (stereo not shown) [Amphetamine], which “50 % INHIBITION OF Ab-7^123 dl-Met OMPLEX” value is on record?
**A.** > 500 ng

**Q.** With `N[C@@H](Cc1ccc(O)c(O)c1)C(=O)O` [DOPA] as the compound, how does the “50 % INHIBITION OF Ab-7^123 dl-Met OMPLEX” value read?
**A.** > 500 ng

**Q.** How did the “50 % INHIBITION OF Ab-7^123 dl-Met OMPLEX” value turn out when `NCCc1ccc(O)c(O)c1` [Dopamine] was run?
**A.** > 500 ng

**Q.** `CNC(C)C(O)c1ccccc1` (stereo not shown) [Ephedrine] was tested. Which “50 % INHIBITION OF Ab-7^123 dl-Met OMPLEX” value did it give?
**A.** > 500 ng

**Q.** With `CNCCc1ccc(O)c(O)c1` [Epinine] as the compound, how does the “50 % INHIBITION OF Ab-7^123 dl-Met OMPLEX” value read?
**A.** 0.350 ng

**Q.** With `CC(C)NCC(O)c1ccc(O)c(O)c1` (stereo not shown) [Isoproterenol] as the compound, how does the “50 % INHIBITION OF Ab-7^123 dl-Met OMPLEX” value read?
**A.** > 500 ng

**Q.** `CNC(C)Cc1ccccc1` (stereo not shown) [Methamphetamine] was tested. Which “50 % INHIBITION OF Ab-7^123 dl-Met OMPLEX” value did it give?
**A.** > 500 ng

**Q.** With `NCCc1c[nH]c2ccc(O)cc12` [Sezotosin] as the compound, how does the “50 % INHIBITION OF Ab-7^123 dl-Met OMPLEX” value read?
**A.** > 500 ng
